Measurements reported in paper PMC7564829, “Potent Broad-Spectrum Antibacterial Activity of Amphiphilic Peptides against Multidrug-Resistant Bacteria” (Microorganisms, 2020).
In brackets after ≈: the same amount, converted by molar mass. Where two headings read alike, the source gives them in different places. Ends that are not written are not given here.

Legend:
MRSA T144 = assay: MIC/MBC, broth micro-dilution; type: cell-based, Staphylococcus aureus
Method: (§1) Experiments were performed with two biological replicates.

E. coli B3-1 (tet(X4)) = assay: MIC/MBC, broth micro-dilution; type: cell-based
Method: as §1

E. faecalis A4 (VRE) = assay: MIC/MBC, broth micro-dilution; type: cell-based
Method: as §1

E. coli 1F28 (tet(X4)) = assay: MIC/MBC, broth micro-dilution; type: cell-based
Method: as §1

E. coli ATCC 25922 = assay: microbe, parasite or virus in culture; type: cell-based
Method: as §1

[1] = tested on: MDR E. coli B2 (mcr-1 + blaNDM-5); assay: microbe, parasite or virus in culture; type: cell-based
Method: as §1

S. aureus ATCC 29213 = assay: microbe, parasite or virus in culture; type: cell-based
Method: as §1

[2] = tested on: S. aureus 215 (cfr + LZD^R); assay: microbe, parasite or virus in culture; type: cell-based; settings: 18 h
Method: as §1

[3] = tested on: S. enteritidis ATCC 13076; assay: microbe, parasite or virus in culture; type: cell-based
Method: as §1

E. coli 1F16 = assay: MIC, tigecycline-resistant clinical isolate; type: cell-based
Method: as §1

Shigella 1F25 = assay: MIC, tigecycline-resistant clinical isolate; type: cell-based; settings: Shigella 1F25, feces, broth micro-dilution
Method: as §1

E. coli 2W25 = assay: MIC, tigecycline-resistant clinical isolate; type: cell-based
Method: as §1

E. coli 1C1 = assay: MIC, tigecycline-resistant clinical isolate; type: cell-based
Method: as §1

E. coli 1N28 = assay: MIC, tigecycline-resistant clinical isolate; type: cell-based
Method: as §1

E. coli 1F31 = assay: MIC, tigecycline-resistant clinical isolate; type: cell-based
Method: as §1

E. coli 1N31 = assay: MIC, tigecycline-resistant clinical isolate; type: cell-based
Method: as §1

E. coli 1A34 = assay: MIC, tigecycline-resistant clinical isolate; type: cell-based
Method: as §1

E. coli 2A19 = assay: MIC, tigecycline-resistant clinical isolate; type: cell-based
Method: as §1

[4] = Hydrophobicity by RP-HPLC (percent acetonitrile at elution); type: physicochemical; settings: acetonitrile in water, 0.1% (v/v) TFA, higher percent = higher hydrophobicity
Method: All peptides used in this study were synthesized by GL Biochem (Shanghai, China) using a solid phase peptide synthesis (SPPS) method, and their accurate molecular weights were determined by matrix-assisted laser desorption/ionization time-of-flight mass spectrometry (MALDI-TOF MS). The peptide purity (>95%) and retention time were determined by reversed-phase high-performance liquid chromatography (HPLC).
A collection of tryptophan-rich linear peptides on the basis of MP196 (RWRWRW-NH2) was designed by increasing peptide length or positive charge or hydrophobicity, replacing amino acids and/or N-terminal acetylation (Table 1). These peptides were synthesized via solid-phase peptide synthesis (SPPS), purified by reverse-phase high-performance liquid chromatography (RP-HPLC) (Figure S1) and validated by matrix-assisted laser desorption/ionization time-of-flight mass spectrometry (MALDI-TOF MS) (Figure S2). […] All engineered peptides belong to cationic AMPs, with 3 or 6 net charges. The percentage of acetonitrile at RP-HPLC elution was regarded as a relative measure of peptides’ hydrophobicity. […] The hydrophobicity order was listed as follows: WRK-12 > WL-9 > WR-6 > WV-9 > KW-6 > WKK-12 > WR-12 > MP196 > WK-6.

[5] = ref [19]; cited from earlier work
Source text: Antimicrobial peptides (AMPs), also named host defense peptides, are originated from various organisms and are important immune modulation molecules that protect the host from the invading pathogens. […] However, the high cost of peptides, the lability to proteases, less bioavailable and nonspecific toxicity still hinder these AMPs in clinical practice. A more rational design of AMPs contributes to improving their stability and antibacterial activity. ...

RBCs = settings: cited from earlier work
[6] = Staphylococcus aureus, MRSA T144, broth micro-dilution CLSI 2018, MHB, 18 h, 37 °C, read-out: MIC
[7] = Escherichia coli, E. coli B3-1 (tet(X4)), broth micro-dilution CLSI 2018, MHB, 18 h, 37 °C, read-out: MIC
[8] = Escherichia coli, E. coli 1F28 (tet(X4)), broth micro-dilution CLSI 2018, MHB, 18 h, 37 °C, read-out: MIC
[9] = Escherichia coli, Table 2, E. coli B2 (mcr-1 + blaNDM-5), broth micro-dilution CLSI 2018, MHB, 18 h, 37 °C, read-out: MIC
[10] = Enterococcus faecalis, VRE, 18 h
[11] = Escherichia coli, ATCC25922, 18 h
[12] = Staphylococcus aureus, ATCC29213, 18 h
[13] = MDR B2 (mcr-1 + blaNDM-5, 18 h)
[14] = S. aureus 215 (cfr + LZD^R), broth micro-dilution CLSI 2018, MHB, 37 °C

CC1(C)S[C@@H]2[C@H](NC(=O)[C@H](N)c3ccccc3)C(=O)N2[C@H]1C(=O)O [AMP, ampicillin]
MIC (MRSA T144; [6]): 32 µg/mL (≈ 91.6 µM) | MIC (E. coli B3-1 (tet(X4)); [7]): > 128 µg/mL | MIC (E. faecalis A4 (VRE); Enterococcus faecalis, E. faecalis A4 (VRE), broth micro-dilution CLSI 2018, MHB, 18 h, 37 °C, read-out: MIC): 32 µg/mL (≈ 91.6 µM) | MIC (E. coli 1F28 (tet(X4)); [8]): > 128 µg/mL | MIC (E. coli ATCC 25922; Escherichia coli, ATCC25922, E. coli ATCC 25922, broth micro-dilution CLSI 2018, MHB, 18 h, 37 °C, read-out: MIC): 8 µg/mL (≈ 22.9 µM) | MIC [1, 9]: > 128 µg/mL | MIC (S. aureus ATCC 29213; Staphylococcus aureus, ATCC29213, S. aureus ATCC 29213, broth micro-dilution CLSI 2018, MHB, 18 h, 37 °C, read-out: MIC): 0.25 µg/mL (≈ 0.715 µM) | MIC ([2]; Staphylococcus aureus): 64 µg/mL (≈ 183 µM) | MIC ([3]; Salmonella enterica, S. enteritidis ATCC 13076, broth micro-dilution CLSI 2018, MHB, 18 h, 37 °C, read-out: MIC): 8 µg/mL (≈ 22.9 µM)

CN(C)c1cc(NC(=O)CNC(C)(C)C)c(O)c2c1C[C@H]1C[C@H]3[C@H](N(C)C)C(O)=C(C(N)=O)C(=O)[C@@]3(O)C(O)=C1C2=O [TIG, tigecycline, reference compound]
MIC (MRSA T144; [6]): 2 µg/mL (≈ 3.41 µM) | MIC (E. coli B3-1 (tet(X4)); [7]): 32 µg/mL (≈ 54.6 µM) | MIC (E. faecalis A4 (VRE); [10]): 0.125 µg/mL (≈ 0.213 µM) | MIC (E. coli 1F28 (tet(X4)); [8]): 32 µg/mL (≈ 54.6 µM) | MIC (E. coli ATCC 25922; [11]): 0.125 µg/mL (≈ 0.213 µM) | MIC [1, 9]: 2 µg/mL | MIC (S. aureus ATCC 29213; [12]): 0.125 µg/mL (≈ 0.213 µM) | MIC ([2]; Staphylococcus aureus): 1 µg/mL (≈ 1.71 µM) | MIC ([3]; Salmonella enterica, 18 h): 0.125 µg/mL (≈ 0.213 µM) | MIC (E. coli 1F16; Escherichia coli, E. coli 1F16, feces, tigecycline-resistant clinical isolate, broth micro-dilution, read-out: MIC): > 64 µg/mL | MIC (Shigella 1F25; read-out: MIC): 8 µg/mL (≈ 13.7 µM) | MIC (E. coli 2W25; Escherichia coli, E. coli 2W25, water, tigecycline-resistant clinical isolate, broth micro-dilution, read-out: MIC): 64 µg/mL (≈ 109 µM) | MIC (E. coli 1C1; Escherichia coli, E. coli 1C1, dust, tigecycline-resistant clinical isolate, broth micro-dilution, read-out: MIC): 32 µg/mL (≈ 54.6 µM) | MIC (E. coli 1N28; Escherichia coli, E. coli 1N28, nasal swab, tigecycline-resistant clinical isolate, broth micro-dilution, read-out: MIC): 32 µg/mL (≈ 54.6 µM) | MIC (E. coli 1F31; Escherichia coli, E. coli 1F31, tigecycline-resistant clinical isolate, broth micro-dilution, read-out: MIC): 32 µg/mL (≈ 54.6 µM) | MIC (E. coli 1N31; Escherichia coli, E. coli 1N31, tigecycline-resistant clinical isolate, broth micro-dilution, read-out: MIC): 128 µg/mL (≈ 219 µM) | MIC (E. coli 1A34; Escherichia coli, E. coli 1A34, anal swab, tigecycline-resistant clinical isolate, broth micro-dilution, read-out: MIC): 16 µg/mL (≈ 27.3 µM) | MIC (E. coli 2A19; Escherichia coli, E. coli 2A19, tigecycline-resistant clinical isolate, broth micro-dilution, read-out: MIC): 8 µg/mL (≈ 13.7 µM)

CN[C@H](CC(C)C)C(=O)N[C@H]1C(=O)N[C@@H](CC(N)=O)C(=O)N[C@H]2C(=O)N[C@H]3C(=O)N[C@H](C(=O)N[C@H](C(=O)O)c4cc(O)cc(O)c4-c4cc3ccc4O)[C@H](O)c3ccc(c(Cl)c3)Oc3cc2cc(c3O[C@@H]2O[C@H](CO)[C@@H](O)[C@H](O)[C@H]2O[C@H]2C[C@](C)(N)[C@H](O)[C@H](C)O2)Oc2ccc(cc2Cl)[C@H]1O [VAN, vancomycin]
MIC (MRSA T144; Staphylococcus aureus, MRSA, 18 h): 1 µg/mL (≈ 0.69 µM) | MIC (E. coli B3-1 (tet(X4)); Escherichia coli, 18 h): 64 µg/mL (≈ 44.2 µM) | MIC (E. faecalis A4 (VRE); [10]): > 128 µg/mL | MIC (E. coli 1F28 (tet(X4)); Escherichia coli, 18 h): 128 µg/mL (≈ 88.3 µM) | MIC (E. coli ATCC 25922; [11]): 128 µg/mL (≈ 88.3 µM) | MIC ([1]; Escherichia coli, 18 h): 128 µg/mL (≈ 88.3 µM) | MIC (S. aureus ATCC 29213; [12]): 0.5 µg/mL (≈ 0.345 µM) | MIC ([2]; Staphylococcus aureus): 1 µg/mL (≈ 0.69 µM) | MIC ([3]; Salmonella enterica, 18 h): 128 µg/mL (≈ 88.3 µM)

Ac-WKVKWKVKWKVK-NH2 [WKK-12]
MIC (MRSA T144; T144, 18 h): 64 µg/mL | MIC (E. coli B3-1 (tet(X4)); B3-1 (tet(X4, 18 h))): 64 µg/mL | MIC (E. faecalis A4 (VRE); A4 (VRE, 18 h)): 64 µg/mL | MIC (E. coli 1F28 (tet(X4)); 1F28 (tet(X4, 18 h))): 64 µg/mL | H (hydrophobicity, percent of acetonitrile at HPLC elution) [4]: 31.424 percent acetonitrile | MIC (E. coli ATCC 25922; ATCC 25922, 18 h): 128 µg/mL | MIC [1, 13]: 64 µg/mL | MIC (S. aureus ATCC 29213; ATCC 29213, 18 h): 128 µg/mL | MIC [2, 14]: 64 µg/mL | MIC ([3]; ATCC 13076, 18 h): 64 µg/mL | MIC (E. coli 1F16; 1F16, 4 h): 64 µg/mL | MIC (Shigella 1F25): 64 µg/mL | MIC (E. coli 2W25; 2W25, 4 h): 64 µg/mL | MIC (E. coli 1C1; 1C1, 4 h): 64 µg/mL | MIC (E. coli 1N28; 1N28, 4 h): 64 µg/mL | MIC (E. coli 1F31; 1F31, 4 h): 64 µg/mL | MIC (E. coli 1N31; 1N31, 4 h): 64 µg/mL | MIC (E. coli 1A34; 1A34, 4 h): 64 µg/mL | MIC (E. coli 2A19; 2A19, 4 h): 128 µg/mL

KWKWKW-NH2 [KW-6]
MIC [1, 13]: >64 µg/mL

RWRWRW-NH2 [MP196]
in vivo stability [5]: low in vivo stability | MIC [1, 13]: >64 µg/mL | hemolysis to RBCs (RBCs): high hemolysis

WKVWKVWKV-NH2 [WV-9]
MIC [1, 13]: >64 µg/mL

WKWKWK-NH2 [WK-6]
MIC [1, 13]: >64 µg/mL

WRLRWRLRWRLR-NH2 [WR-12]
MIC [1, 13]: 2 µg/mL

WRLWRLWRL-NH2 [WL-9]
MIC [1, 13]: 8 µg/mL

WRWRWR-NH2 [WR-6]
MIC [1, 13]: >64 µg/mL

colistin
MIC (MRSA T144; MRSA T144, broth micro-dilution CLSI 2018, MHB, 18 h, 37 °C): 128 µg/mL | MIC (E. coli B3-1 (tet(X4)); E. coli B3-1 (tet(X4)), broth micro-dilution CLSI 2018, MHB, 18 h, 37 °C): 0.25 µg/mL | MIC (E. faecalis A4 (VRE); E. faecalis A4 (VRE), broth micro-dilution CLSI 2018, MHB, 18 h, 37 °C): 128 µg/mL | MIC (E. coli 1F28 (tet(X4)); E. coli 1F28 (tet(X4)), broth micro-dilution CLSI 2018, MHB, 18 h, 37 °C): 0.25 µg/mL | MIC (E. coli ATCC 25922; E. coli ATCC 25922, broth micro-dilution CLSI 2018, MHB, 18 h, 37 °C): 0.5 µg/mL | MIC ([1]; Table 2, E. coli B2 (mcr-1 + blaNDM-5), broth micro-dilution CLSI 2018, MHB, 18 h, 37 °C): 8 µg/mL | MIC (S. aureus ATCC 29213; S. aureus ATCC 29213, broth micro-dilution CLSI 2018, MHB, 18 h, 37 °C): 16 µg/mL | MIC [2, 14]: 64 µg/mL | MIC ([3]; S. enteritidis ATCC 13076, broth micro-dilution CLSI 2018, MHB, 18 h, 37 °C): 0.25 µg/mL
